Test results published in ChEMBL document CHEMBL1146811, “Specific inhibition effects of N-pentafluorobenzyl-1-deoxynojirimycin on human CD4+ T cells” (Bioorg Med Chem Lett, 2004).
pIC50: −log10 of the molar value.

Experiment: Effect on proliferation of human peripheral blood mononuclear cells (PMBC) at 72 hr using MTT assay
Type: functional

Structure (SMILES)	pIC50
OCC1C(O)C(O)C(O)CN1Cc1c(F)c(F)c(F)c(F)c1F (configuration not stated)	4.70
OC[C@H]1NC[C@H](O)[C@@H](O)[C@@H]1O [DUVOGLUSTAT]	4.59
